Test systems include SF-539 CNS; K-562 leukemia; UACC-62 melanoma; MDA-MB-231 breast; PC-3 prostate; NCI-H460 lung; BT-549 breast; SK-OV-3 ovarian; HS 578T breast; NCI/ADR-RES ovarian; SNB-75 CNS; OVCAR-5 ovarian; A549 NSCLC; SR leukemia; NCI-H23 lung; ACHN renal; T-47D breast; HT29 colon; HCC-2998 colon; HOP-92 NSCLC.
Common to all, as to test: growth of human tumour cells (NCI), 48 h

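How tested: cells in 96-well plates exposed to compound for 48 hours at five concentrations. TGI: concentration producing complete growth inhibition.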 Some results are limits rather than exact numbers.

Take `Cn1c2ccccc2c(=O)c2cccc(C(=O)NC(CS)C(=O)O)c21` (stereo not drawn): the TGI with SF-539 CNS, in the test on K-562 leukemia, in the test on UACC-62 melanoma, in the test on MDA-MB-231 breast, with PC-3 prostate and in the test with NCI-H460 lung was more than 100 µM in each case. The TGI in the test with BT-549 breast, in the test with SK-OV-3 ovarian, in the test with HS 578T breast, in the test with NCI/ADR-RES ovarian, in the test with SNB-75 CNS and in the test with OVCAR-5 ovarian was more than 100 µM throughout. The TGI with A549 NSCLC, in the test on SR leukemia, in the test on NCI-H23 lung, in the test with ACHN renal, in the test on T-47D breast and with HT29 colon was more than 100 µM in each case. The molecule also returned a TGI in the test with HCC-2998 colon of more than 100 µM.

In the case of `CCOC(=O)[C@H](C)OC(=O)[C@@](C)(NC(=O)c1ccccc1C(=O)OC)[C@@H]1NC=C(C(=O)OC)CS1`, the TGI in the test with K-562 leukemia, with UACC-62 melanoma, with MDA-MB-231 breast, in the test with PC-3 prostate, with NCI-H460 lung and in the test with BT-549 breast was more than 100 µM each time. For the same molecule, the TGI with SK-OV-3 ovarian, in the test with HS 578T breast, in the test on NCI/ADR-RES ovarian, in the test with SNB-75 CNS, in the test on OVCAR-5 ovarian and in the test on A549 NSCLC was more than 100 µM throughout. In addition, the TGI is 46.5 µM with SR leukemia; more than 100 µM in the test on NCI-H23 lung; more than 100 µM in the test on ACHN renal; more than 100 µM in the test with T-47D breast; more than 100 µM in the test with HT29 colon; more than 100 µM in the test with HCC-2998 colon.

`CC(=O)N(C)CCc1c[nH]c2ccccc12`: the TGI in the test on SF-539 CNS, in the test with K-562 leukemia, in the test on UACC-62 melanoma, in the test with MDA-MB-231 breast, in the test with PC-3 prostate and with NCI-H460 lung was more than 100 µM in each case. For the same molecule, the TGI with BT-549 breast, in the test on SK-OV-3 ovarian, in the test on HS 578T breast, with NCI/ADR-RES ovarian, with SNB-75 CNS and in the test with OVCAR-5 ovarian was more than 100 µM throughout. Also, the TGI in the test with A549 NSCLC, with SR leukemia, in the test on NCI-H23 lung, in the test with ACHN renal, with T-47D breast and in the test on HT29 colon was more than 100 µM throughout.

As to `COC1=C(Br)[C@H](O)[C@@]2(C=C1Br)CC(C(=O)NCCCOc1c(Br)cc(C(O)CNC(C)=O)cc1Br)=NO2` (stereo partly drawn), the TGI in the test on SF-539 CNS, in the test with K-562 leukemia, in the test with UACC-62 melanoma, in the test on MDA-MB-231 breast, with PC-3 prostate and in the test on NCI-H460 lung was more than 10 µM in each case. Besides, the TGI with BT-549 breast, with SK-OV-3 ovarian, in the test with HS 578T breast, in the test on NCI/ADR-RES ovarian, in the test on SNB-75 CNS and with OVCAR-5 ovarian was more than 10 µM in each case. Further, the TGI in the test on A549 NSCLC was more than 10 µM; in the test on SR leukemia, 1.77 µM; in the test on NCI-H23 lung, more than 10 µM; with ACHN renal, more than 10 µM; in the test with T-47D breast, more than 10 µM; in the test with HT29 colon, more than 10 µM. For the same molecule, the TGI in the test on HCC-2998 colon is more than 10 µM.

In the case of `CCSC1=N/C(=C\c2ccc(N(C)C)cc2)C(Cl)=N1`, the TGI with UACC-62 melanoma, in the test with MDA-MB-231 breast, in the test on PC-3 prostate, in the test on NCI-H460 lung, in the test on BT-549 breast and in the test on SK-OV-3 ovarian was more than 100 µM each time. Moreover, the TGI in the test on HS 578T breast, in the test on NCI/ADR-RES ovarian, with SNB-75 CNS, in the test on OVCAR-5 ovarian, with A549 NSCLC and in the test on NCI-H23 lung was more than 100 µM in each case. The TGI with ACHN renal, in the test with T-47D breast, in the test with HT29 colon, in the test on HCC-2998 colon and with HOP-92 NSCLC was more than 100 µM in each case.

Consider `CC(=O)O[C@H]1CC[C@@]2(C)C(=CC[C@H]3[C@@H]4C/C(=C\c5ccc(N(C)C)cc5)[C@H](OC(C)=O)[C@@]4(C)CC[C@@H]32)C1`, for which the TGI in the test with SF-539 CNS was 27.9 µM; in the test with K-562 leukemia, more than 100 µM; in the test with UACC-62 melanoma, 20.7 µM; with MDA-MB-231 breast it was 29.4 µM; in the test on PC-3 prostate, 16.7 µM; in the test on NCI-H460 lung, 18.2 µM. Further, the TGI with BT-549 breast was 33.4 µM; in the test with SK-OV-3 ovarian, more than 100 µM; in the test with HS 578T breast it was 9.36 µM; in the test with NCI/ADR-RES ovarian it was 35.4 µM; in the test with SNB-75 CNS it was more than 100 µM; with OVCAR-5 ovarian it was 52.8 µM. The TGI is 31.7 µM in the test on A549 NSCLC; more than 100 µM in the test on SR leukemia; 30.9 µM in the test with NCI-H23 lung; 24.4 µM in the test with ACHN renal; 76.8 µM with T-47D breast; 34.2 µM with HT29 colon.

`O=C1C=C(NCCOCCO)C(=O)c2c(O)ccc(O)c21`: the TGI with SF-539 CNS was 54.6 µM; in the test on K-562 leukemia, 87.4 µM; in the test on UACC-62 melanoma it was 28.2 µM; in the test with MDA-MB-231 breast it was more than 100 µM; in the test on PC-3 prostate, more than 100 µM; with NCI-H460 lung it was more than 100 µM. The TGI in the test with BT-549 breast was more than 100 µM; with SK-OV-3 ovarian it was more than 100 µM; with HS 578T breast, more than 100 µM; with NCI/ADR-RES ovarian, 65.7 µM; in the test on SNB-75 CNS, more than 100 µM; in the test with OVCAR-5 ovarian, more than 100 µM. Further, the TGI is 73.6 µM in the test with A549 NSCLC; 47.9 µM in the test on NCI-H23 lung; 83 µM with ACHN renal; 59.8 µM with T-47D breast; 42.2 µM with HT29 colon; 43.6 µM with HCC-2998 colon. For the same molecule, in the test on HOP-92 NSCLC, the TGI was found to be 51.3 µM.

The values are drawn from PubChem BioAssay (NCI).
